Experiments:
[1] = target: T1, isolated kinase domain of the human FLT3 receptor (a.a. 571-993) (Homo sapiens, UniProt P36888); assay: FLT3 fluorescence polarization kinase assay; format: biochemical; details: 150 uM ATP; uncertainty ±10%
T1 construct: human FLT3 receptor (a.a. 571-993)
T1 sequence (P36888 571-993): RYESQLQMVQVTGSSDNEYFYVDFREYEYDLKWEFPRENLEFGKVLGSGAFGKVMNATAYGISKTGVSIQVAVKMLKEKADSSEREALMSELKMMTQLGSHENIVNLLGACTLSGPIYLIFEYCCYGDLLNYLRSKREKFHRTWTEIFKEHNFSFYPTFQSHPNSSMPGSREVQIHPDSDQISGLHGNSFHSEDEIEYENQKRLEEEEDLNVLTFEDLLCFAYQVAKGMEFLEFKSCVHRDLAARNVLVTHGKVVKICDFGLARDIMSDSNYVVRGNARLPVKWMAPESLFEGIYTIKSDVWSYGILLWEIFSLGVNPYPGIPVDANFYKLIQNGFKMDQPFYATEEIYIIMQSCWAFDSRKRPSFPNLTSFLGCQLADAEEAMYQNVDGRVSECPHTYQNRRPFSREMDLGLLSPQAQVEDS

MV4-11 cells = assay: Inhibition of MV4-11 cell proliferation (CellTiterGlo, 72 h); format: cell-based; details: Homo sapiens; 72 h growth inhibition; uncertainty ±20%

Compound | IC50 [1] | IC50 (MV4-11 cells)
O=C(Nc1ccc(N2CCCC2)cc1)N1CCC(c2ncnc3cc(OCCCN4CCC[C@H]4CO)ccc23)CC1 [Example 161, (S)-4-{7-[3-(2-Hydroxymethyl-pyrrolidin-1-yl)-propoxy]-quinazolin-4-yl}-piperidine-1-carboxylic acid (4-pyrrolidin-1-yl-phenyl)-amide] | 1 nM | 13 nM
O=C(Nc1ccc(N2CCCC2)cc1)N1CCC(c2ncnc3cc(OC4CCOCC4)ccc23)CC1 [Compound 189, 4-[7-(Tetrahydro-pyran-4-yloxy)-quinazolin-4-yl]-piperidine-1-carboxylic acid (4-pyrrolidin-1-yl-phenyl)-amide] | 1130 nM | 286 nM
CN1CCN(c2ccc3c(C4CCN(C(=O)Nc5ccc(N6CCCC6)cc5)CC4)ncnc3c2)CC1 [Example 159, 4-[7-(4-Methyl-piperazin-1-yl)-quinazolin-4-yl]-piperidine-1-carboxylic acid (4-pyrrolidin-1-yl-phenyl)-amide] | 7 nM | 6 nM
O=C(Nc1ccc(N2CCCC2)cc1)N1CCC(c2ncnc3cc(N4CCC4)ccc23)CC1 [Example 173, 4-(7-Azetidin-1-yl-quinazolin-4-yl)-piperidine-1-carboxylic acid (4-pyrrolidin-1-yl-phenyl)-amide] | 1 nM | 16 nM
CN1CCN(CCOc2ccc3c(C4CCN(C(=O)Nc5ccc(N6CCOCC6)cc5)CC4)ncnc3c2)CC1 [Example 156, 4-{7-[2-(4-Methyl-piperazin-1-yl)-ethoxy]-quinazolin-4-yl}-piperidine-1-carboxylic acid (4-morpholin-4-yl-phenyl)-amide] | 6 nM | 74 nM
O=C(Nc1ccc(N2CCCC2)cc1)N1CCC(c2ncnc3cc(N4CCN(c5ccncc5)CC4)ccc23)CC1 [Compound 194, 4-[7-(4-Pyridin-4-yl-piperazin-1-yl)-quinazolin-4-yl]-piperidine-1-carboxylic acid (4-pyrrolidin-1-yl-phenyl)-amide] | 20 nM | 0.4 nM
O=C(Nc1ccc(N2CCOCC2)cc1)N1CCC(c2ncnc3cc(N4CCNC4=O)ccc23)CC1 [Compound 197, 4-[7-(2-Oxo-imidazolidin-1-yl)-quinazolin-4-yl]-piperidine-1-carboxylic acid (4-morpholin-4-yl-phenyl)-amide] | 1040 nM | 143 nM
CS(=O)(=O)N1CC(Oc2ccc3c(C4CCN(C(=O)Nc5ccc(N6CCCC6)cc5)CC4)ncnc3c2)C1 [Example 171, 4-[7-(1-Methanesulfonyl-azetidin-3-yloxy)-quinazolin-4-yl]-piperidine-1-carboxylic acid (4-pyrrolidin-1-yl-phenyl)-amide] | 130 nM | 185 nM
O=C(Nc1ccc(N2CCCC2)cc1)N1CCC(c2ncnc3cc(OCCN4CCOC4=O)ccc23)CC1 [Example 147, 4-{7-[2-(2-Oxo-oxazolidin-3-yl)-ethoxy]-quinazolin-4-yl}-piperidine-1-carboxylic acid (4-pyrrolidin-1-yl-phenyl)-amide] | 27 nM | 51 nM
CC(C)Oc1ccc(NC(=O)N2CCC(c3ncnc4ccc(N5CCN(C)CC5)cc34)CC2)cc1 [Example 131, 4-[6-(4-Methyl-piperazin-1-yl)-quinazolin-4-yl]-piperidine-1-carboxylic acid (4-isopropoxy-phenyl)-amide] | 436 nM | 2800 nM
CCN1CCN(c2ccc3c(C4CCN(C(=O)Nc5ccc(N6CCCC6)cc5)CC4)ncnc3c2)CC1 [Compound 187, 4-[7-(4-Ethyl-piperazin-1-yl)-quinazolin-4-yl]-piperidine-1-carboxylic acid (4-pyrrolidin-1-yl-phenyl)-amide] | 146 nM | 21 nM
COc1cc2ncnc(C3CCN(C(=O)Nc4ccc(N5CCCCC5)cc4)CC3)c2cc1OC [Example 19, 4-(6,7-Dimethoxy-quinazolin-4-yl)-piperidine-1-carboxylic acid (4-piperidin-1-yl-phenyl)-amide] | 17 nM | 10 nM
O=C(Nc1ccc(N2CCOCC2)cc1)N1CCC(c2ncnc3cc(OCCN4CCOC4=O)ccc23)CC1 [Example 148, 4-{7-[2-(2-Oxo-oxazolidin-3-yl)-ethoxy]-quinazolin-4-yl}-piperidine-1-carboxylic acid (4-morpholin-4-yl-phenyl)-amide] | 30 nM | 66 nM
CN1CCN(CCCOc2ccc3c(C4CCN(C(=O)Nc5ccc(N6CCCC6)cc5)CC4)ncnc3c2)CC1 [Example 158, 4-{7-[3-(4-Methyl-piperazin-1-yl)-propoxy]-quinazolin-4-yl}-piperidine-1-carboxylic acid (4-pyrrolidin-1-yl-phenyl)-amide] | 8 nM | 11 nM
CS(=O)(=O)CCNc1ccc2c(C3CCN(C(=O)Nc4ccc(N5CCOCC5)cc4)CC3)ncnc2c1 [Example 146, 4-[7-(2-Methanesulfonyl-ethylamino)-quinazolin-4-yl]-piperidine-1-carboxylic acid (4-morpholin-4-yl-phenyl)-amide] | 274 nM | 322 nM
COc1cc2ncnc(C3CCN(C(=O)Nc4ccc(OC5CCC5)nc4)CC3)c2cc1OC [Example 17, 4-(6,7-Dimethoxy-quinazolin-4-yl)-piperidine-1-carboxylic acid (6-cyclobutoxy-pyridin-3-yl)-amide] | 16 nM | 31 nM
COc1cc2ncnc(C3CCN(C(=O)Nc4ccc5ncsc5c4)CC3)c2cc1OC [Example 24, 4-(6,7-Dimethoxy-quinazolin-4-yl)-piperidine-1-carboxylic acid benzothiazol-6-ylamide] | 5500 nM | 3700 nM
CS(=O)(=O)N1CCN(c2ccc3c(C4CCN(C(=O)Nc5ccc(N6CCCC6)cc5)CC4)ncnc3c2)CC1 [Example 167, 4-[7-(4-Methanesulfonyl-piperazin-1-yl)-quinazolin-4-yl]-piperidine-1-carboxylic acid (4-pyrrolidin-1-yl-phenyl)-amide] | 44 nM | 21 nM
O=C(Nc1ccc(N2CCCC2)cc1)N1CCC(c2ncnc3cc(O[C@@H]4CCOC4)ccc23)CC1 [Compound 191, (R)-4-[7-(Tetrahydro-furan-3-yloxy)-quinazolin-4-yl]-piperidine-1-carboxylic acid (4-pyrrolidin-1-yl-phenyl)-amide] | 216 nM | 71 nM
CN1CCN(c2ccc3c(C4CCN(C(=O)Nc5ccc(N6CCOCC6)cc5)CC4)ncnc3c2)CC1 [Example 135, 4-[7-(4-Methyl-piperazin-1-yl)-quinazolin-4-yl]-piperidine-1-carboxylic acid (4-morpholin-4-yl-phenyl)-amide] | 27 nM | 125 nM
O=C(COc1ccc2c(C3CCN(C(=O)Nc4ccc(N5CCCC5)cc4)CC3)ncnc2c1)N1CCOCC1 [Example 172, 4-[7-(2-Morpholin-4-yl-2-oxo-ethoxy)-quinazolin-4-yl]-piperidine-1-carboxylic acid (4-pyrrolidin-1-yl-phenyl)-amide] | 542 nM | 248 nM
CN(C)[C@@H]1CCN(c2ccc3c(C4CCN(C(=O)Nc5ccc(N6CCCC6)cc5)CC4)ncnc3c2)C1 [Example 149, (R)-4-[7-(3-Dimethylamino-pyrrolidin-1-yl)-quinazolin-4-yl]-piperidine-1-carboxylic acid (4-pyrrolidin-1-yl-phenyl)-amide] | 46 nM | 46 nM

Source: patent US20070004660A1, “Synergistic Modulation of Flt3 Kinase Using Alkylquinolines and Alkylquinazolines” (priority 2005, published 2007)
